Laboratory results: US9440957B2, “Compounds and compositions for modulating EGFR Activity” (Novartis AG, priority 2012, dated 2016)
Where two headings read alike, the source gives them in different places.

How the values were obtained:
[1] = target: H1975 (EGFR L858/T790M) (Homo sapiens, UniProt P00533, L858R/T790M); assay: EGFR target modulation in H1975 cell line (phospho-EGFR Y1173 ELISA); assay type: cell-based
Summary of the method: (§1)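 Phospho-EGFR Y1173 levels were measured by chemiluminescent capture ELISA in lysates of cells exposed to compound for 3 hours at 37 °C. Inhibition was normalised to EGF-stimulated control cells taken as maximal response, and IC50 values were obtained by non-linear curve fitting.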

[2] = target: H3255 (EGFR L858R) (Homo sapiens, UniProt P00533, L858R); assay: EGFR target modulation in H3255 cell line (phospho-EGFR Y1173 ELISA); assay type: cell-based
Summary of the method: as §1

[3] = target: HaCaT (EGFR WT) (Homo sapiens, UniProt P00533); assay: EGFR target modulation in HaCaT (EGFR-WT) cell line (phospho-EGFR Y1173 ELISA); assay type: cell-based; settings: value in parentheses
Method: EGFR Target Modulation in HaCaT (EGFR-WT) Cell Line Tissue Culture. […] The serial diluted compounds were transferred to the plate containing cells by using a 50 nl Pin Head device (Perkin Elmer) and the cells were placed back in the incubator for 3 hours. […] Phospho-EGFR ([…]) ELISA. Solid white high-binding ELISA plates (Greiner #781074) were coated with 5 ug/ml anti-EGFR capture antibody (R&D Systems #AF231) overnight in 50 mM carbonate/bicarbonate pH 9.5 buffer. […] Wash steps were carried out with a Bio-Tek ELx405 SelectTM using 4 cycles of 100 ul TBS-T (20 mM Tris, 137 mM NaCl, 0.05% Tween-20) per well. […] Lysis was allowed to occur for 20 minutes on ice. A 25 ul aliquot was added to each well of the blocked ELISA plate and incubated overnight at 4° C. with gentle shaking. […] After washing, 1:2,000 anti-rabbit-HRP (Cell Signaling #7074) in 0.2% BSA/TBS-T was added and incubated for 1 hour at room temperature. Chemiluminescent detection was carried out with SuperSignal ELISA Pico substrate (ThermoScientific #37069). Signal was read on EnVision plate reader using built-in UltraLUM setting. Data Analysis. Control cells treated with EGF were set to 100% maximum response. […] With these parameters, the IC50's for each compound in each cell line was calculated using non-linear curve fitting analysis.

[4] = target: T1, EGFR(L858R/T790M) (Homo sapiens, UniProt P00533, L858R/T790M); assay: EGFR biochemical assay (HTRF), IC50 determinations
T1 construct: purchased from Carna (GST-a.a. 669-1210)
Summary of the method: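 Two formats were run: compound preincubated at room temperature with enzyme and biotin-TK peptide before ATP starts the reaction, or no preincubation with enzyme added last. Reactions ran 60 min at room temperature and were stopped with EDTA. Phosphopeptide was read by HTRF (PT66K/SAXL, 1 h).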

[5] = target: HCC827 (Del E746-A750) (Homo sapiens, UniProt P00533, DEL746-750); assay: EGFR target modulation in HCC827 cell line (phospho-EGFR Y1173 ELISA); assay type: cell-based
Summary of the method: as §1

[6] = target: HEKn (EGFR WT) (Homo sapiens, UniProt P00533); assay: EGFR target modulation in HEKn (EGFR-WT) cell line (phospho-EGFR Y1173 ELISA); assay type: cell-based; settings: value outside parentheses
Summary of the method: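 Read-out was Y1173 phosphorylation, measured by chemiluminescent ELISA with anti-EGFR capture of lysates. HEKn keratinocytes (wild-type EGFR) were treated with compound for 3 h.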

[7] = target: human EGFR L858R/T790M (NIH/3T3 cells) (Homo sapiens, UniProt P00533, L858R/T790M); assay: EGFR target modulation in engineered NIH/3T3 cell lines (phospho-EGFR Y1068 AlphaLISA), EGFR L858R/T790M; assay type: cell-based; settings: engineered NIH/3T3 cells, read-out: NIH3T3 IC50 (μM) EGFR (L858R/T790M)
Summary of the method: (§2)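 Read-out is phospho-Y1068 AlphaLISA on cell lysates, with anti-total EGFR at 1 nM final equilibrated 1 h at room temperature. Cells were dosed 3 h with a 12-point 1:3 series starting from a 10 μM stock. Only the WT line received 50 ng/ml EGF for 5 min.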

[8] = target: human EGFR WT (NIH/3T3 cells, EGF-induced) (Homo sapiens, UniProt P00533); assay: EGFR target modulation in engineered NIH/3T3 cell lines (phospho-EGFR Y1068 AlphaLISA), EGFR WT; assay type: cell-based; settings: engineered NIH/3T3 cells, read-out: NIH3T3 IC50 (μM) EGFR (WT)
Summary of the method: as §2

[9] = target: human EGFR L858R (NIH/3T3 cells) (Homo sapiens, UniProt P00533, L858R); assay: EGFR target modulation in engineered NIH/3T3 cell lines (phospho-EGFR Y1068 AlphaLISA), EGFR L858R; assay type: cell-based; settings: engineered NIH/3T3 cells, read-out: NIH3T3 IC50 (μM) EGFR (L858R)
Summary of the method: as §2

[10] = EGFR (L858R/T790M) with 90 min pre-incubation, read-out: IC50 (μM) Column B
[11] = EGFR (L858R/T790M) with no pre-incubation, read-out: IC50 (μM) Column A

Sequence of H3255 (EGFR L858R) (P00533 25-1210 L858R): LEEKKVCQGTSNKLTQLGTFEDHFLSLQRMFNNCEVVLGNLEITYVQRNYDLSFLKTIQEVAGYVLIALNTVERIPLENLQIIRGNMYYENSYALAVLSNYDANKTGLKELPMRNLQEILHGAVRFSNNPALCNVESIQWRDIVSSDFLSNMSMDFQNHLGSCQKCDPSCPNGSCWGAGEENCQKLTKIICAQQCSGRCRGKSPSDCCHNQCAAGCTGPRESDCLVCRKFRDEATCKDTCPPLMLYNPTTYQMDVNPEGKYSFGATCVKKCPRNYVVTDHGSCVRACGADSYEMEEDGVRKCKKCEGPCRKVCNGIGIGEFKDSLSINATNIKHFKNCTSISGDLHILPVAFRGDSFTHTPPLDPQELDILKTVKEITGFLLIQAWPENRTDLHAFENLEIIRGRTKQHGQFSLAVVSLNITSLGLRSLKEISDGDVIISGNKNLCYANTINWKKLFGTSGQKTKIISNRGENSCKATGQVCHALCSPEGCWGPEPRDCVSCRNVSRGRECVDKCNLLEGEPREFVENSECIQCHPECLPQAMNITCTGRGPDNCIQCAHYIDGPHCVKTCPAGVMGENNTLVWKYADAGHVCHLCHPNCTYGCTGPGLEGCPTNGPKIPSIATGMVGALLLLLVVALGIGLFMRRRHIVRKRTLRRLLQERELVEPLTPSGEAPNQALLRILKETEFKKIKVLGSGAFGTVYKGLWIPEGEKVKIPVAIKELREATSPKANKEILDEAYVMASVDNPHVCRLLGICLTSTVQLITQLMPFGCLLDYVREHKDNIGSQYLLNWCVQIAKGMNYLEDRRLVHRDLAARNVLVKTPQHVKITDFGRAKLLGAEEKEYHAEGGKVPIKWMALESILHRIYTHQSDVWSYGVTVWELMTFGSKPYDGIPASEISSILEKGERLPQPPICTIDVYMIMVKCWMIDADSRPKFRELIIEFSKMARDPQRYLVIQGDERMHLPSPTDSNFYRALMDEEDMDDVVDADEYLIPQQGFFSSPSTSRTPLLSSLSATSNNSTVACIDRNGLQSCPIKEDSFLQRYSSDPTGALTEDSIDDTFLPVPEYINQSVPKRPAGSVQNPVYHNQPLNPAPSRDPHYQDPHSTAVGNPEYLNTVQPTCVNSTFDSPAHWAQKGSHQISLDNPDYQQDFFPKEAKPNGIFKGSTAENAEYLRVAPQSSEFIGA
Sequence of HEKn (EGFR WT) (P00533 25-1210): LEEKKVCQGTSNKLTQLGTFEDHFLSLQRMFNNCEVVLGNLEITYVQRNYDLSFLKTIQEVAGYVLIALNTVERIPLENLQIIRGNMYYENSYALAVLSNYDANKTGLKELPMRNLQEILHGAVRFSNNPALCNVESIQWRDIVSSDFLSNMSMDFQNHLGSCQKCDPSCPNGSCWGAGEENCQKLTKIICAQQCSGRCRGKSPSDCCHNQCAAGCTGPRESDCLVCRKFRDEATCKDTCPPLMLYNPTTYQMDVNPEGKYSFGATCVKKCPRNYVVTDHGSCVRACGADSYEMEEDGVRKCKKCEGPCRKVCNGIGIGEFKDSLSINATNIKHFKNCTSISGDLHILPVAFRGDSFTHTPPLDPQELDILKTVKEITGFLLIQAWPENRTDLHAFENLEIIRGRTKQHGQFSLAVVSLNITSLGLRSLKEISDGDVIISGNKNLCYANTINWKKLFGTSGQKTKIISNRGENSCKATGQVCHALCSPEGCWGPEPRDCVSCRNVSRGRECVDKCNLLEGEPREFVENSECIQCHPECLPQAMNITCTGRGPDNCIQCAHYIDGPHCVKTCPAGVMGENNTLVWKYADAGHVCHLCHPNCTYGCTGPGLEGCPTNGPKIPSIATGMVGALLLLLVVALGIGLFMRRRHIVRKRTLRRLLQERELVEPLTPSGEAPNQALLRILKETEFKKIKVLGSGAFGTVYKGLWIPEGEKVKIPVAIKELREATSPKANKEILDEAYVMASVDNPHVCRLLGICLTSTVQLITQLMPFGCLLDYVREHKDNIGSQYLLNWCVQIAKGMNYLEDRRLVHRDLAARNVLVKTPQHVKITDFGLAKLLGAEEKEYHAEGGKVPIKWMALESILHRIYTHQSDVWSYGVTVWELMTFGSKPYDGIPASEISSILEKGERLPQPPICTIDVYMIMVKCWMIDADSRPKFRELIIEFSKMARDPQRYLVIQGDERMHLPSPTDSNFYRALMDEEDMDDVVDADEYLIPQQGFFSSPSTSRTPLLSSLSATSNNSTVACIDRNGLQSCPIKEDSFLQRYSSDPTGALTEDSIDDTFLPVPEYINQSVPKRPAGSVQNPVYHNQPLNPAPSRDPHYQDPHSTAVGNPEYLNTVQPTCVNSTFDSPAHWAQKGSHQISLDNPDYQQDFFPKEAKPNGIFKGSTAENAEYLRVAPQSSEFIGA
Sequence of HaCaT (EGFR WT) (P00533 25-1210): as above
T1 sequence (P00533 669-1210 T790M/L858R): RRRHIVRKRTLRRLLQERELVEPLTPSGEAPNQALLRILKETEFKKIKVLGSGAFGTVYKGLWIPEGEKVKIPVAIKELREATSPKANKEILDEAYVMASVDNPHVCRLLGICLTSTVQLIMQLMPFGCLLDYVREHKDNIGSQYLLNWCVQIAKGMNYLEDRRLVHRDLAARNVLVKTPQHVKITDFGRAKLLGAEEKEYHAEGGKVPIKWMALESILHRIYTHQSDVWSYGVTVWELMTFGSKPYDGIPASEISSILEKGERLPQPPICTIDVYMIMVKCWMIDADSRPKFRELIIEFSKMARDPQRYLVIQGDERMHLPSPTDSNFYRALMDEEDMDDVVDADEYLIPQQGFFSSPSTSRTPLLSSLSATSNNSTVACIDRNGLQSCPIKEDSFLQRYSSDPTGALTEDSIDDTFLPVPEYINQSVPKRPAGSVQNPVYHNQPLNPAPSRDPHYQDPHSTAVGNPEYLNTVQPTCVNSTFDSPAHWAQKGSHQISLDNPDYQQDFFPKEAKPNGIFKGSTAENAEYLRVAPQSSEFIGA

Row | Compound | IC50 [1] [nM] | IC50 [2] [nM] | IC50 [3] [nM] | IC50 [4, 10] [µM] | IC50 [4, 11] [µM] | IC50 [5] [nM] | IC50 [6] [nM] | IC50 [7] [µM] | IC50 [8] [µM] | IC50 [9] [µM]
1 | C=CC(=O)N1CCN(C(=O)OC(C)(C)C)CC(n2c(NC(=O)c3ccnc(C)c3)nc3cccc(Cl)c32)C1 (centres unmarked) [Example 12, tert-butyl 4-acryloyl-6-(7-chloro-2-(2-methylisonicotinamido)-1H-benzo[d]imidazol-1-yl)-1,4-diazepane-1-carboxylate] | 50 | 111 | > 10000 | 0.016 | 0.271 |  |  |  |  | 
2 | C=CC(=O)N1CCN(C(C)=O)CC(n2c(NC(=O)c3ccnc(C)c3)nc3cccc(Cl)c32)C1 (centres unmarked) [Example 14, N-(1-(1-acetyl-4-acryloyl-1,4-diazepan-6-yl)-7-chloro-1H-benzo[d]imidazol-2-yl)-2-methylisonicotinamide] | 27 | 71 | 2060 | 0.009 | 0.16 |  |  |  |  | 
3 | Cc1cc(C(=O)Nc2nc3cccc(Cl)c3n2C2CCCCN(C(=O)/C=C/CN(C)C)C2)cc(P(C)(C)=O)n1 (single isomer, unassigned) [Example 21-9B] | 314 | 312 | > 10000 | 0.024 | 0.894 |  |  |  |  | 
4 | C=CC(=O)N1CCNCC(n2c(NC(=O)c3ccnc(C)c3)nc3cccc(Cl)c32)C1 (centres unmarked) [Example 13, N-(1-(1-acryloyl-1,4-diazepan-6-yl)-7-chloro-1H-benzo[d]imidazol-2-yl)-2-methylisonicotinamide] | 113 | 312 | > 10000 | 0.113 | 1.63 |  |  |  |  | 
5 | Cc1cc(C(=O)Nc2nc3cccc(Cl)c3n2C2CCCCN(C(=O)/C=C/CN(C)C)C2)cc(P(C)(C)=O)n1 (single isomer, unassigned) [Example 21-9A] | > 10000 | 6580 | > 10000 | 3.7 | 32.4 |  |  |  |  | 
6 | CN(C)C/C=C/C(=O)N1CCCCC(n2c(NC(=O)c3ccnc(P(C)(C)=O)c3)nc3cccc(Cl)c32)C1 (single isomer, unassigned) [Example 21-10A] | > 10000 | 1540 | > 10000 | 0.572 | 6.05 |  |  |  |  | 
7 | Cc1cc(C(=O)Nc2nc3cccc(Cl)c3n2[C@@H]2CCCCN(C(=O)/C=C/CN(C3CC3)C3CC3)C2)ccn1 [Example 16, (R,E)-N-(7-chloro-1-(1-(4-(dicyclopropylamino)but-2-enoyl)azepan-3-yl)-1H-benzo[d]imidazol-2-yl)-2-methylisonicotinamide] | 58 | 60 | 1100 | 0.005 | 0.045 |  |  |  |  | 
8 | CN(C)C/C=C/C(=O)N1CCCCC(n2c(NC(=O)c3ccnc(P(C)(C)=O)c3)nc3cccc(Cl)c32)C1 (single isomer, unassigned) [Example 21-10B] | 421 | 77 | 6090 | 0.014 | 0.222 |  |  |  |  | 

Now from value to molecule:

Row | IC50 [1] [nM] | IC50 [2] [nM] | IC50 [3] [nM] | IC50 [4, 10] [µM] | IC50 [4, 11] [µM] | IC50 [5] [nM] | IC50 [6] [nM] | IC50 [7] [µM] | IC50 [8] [µM] | IC50 [9] [µM] | Compound
9 | 3480 | 6400 | > 10000 | 1.2 | 0.676 |  |  |  |  |  | Cc1cc(C(=O)Nc2nc3cccc(Cl)c3n2[C@@H]2CCCCN(C(=O)C3=CCN(C)CC3)C2)ccn1 [Example 3-17]
10 | 1 | 1 | 92 | < 0.001 | 0.003 | 1 |  |  |  |  | C=CC(=O)N1CCCC[C@@H](n2c(NC(=O)c3cc(C)nc(C)c3)nc3cc(CN4CCN(C)C(=O)C4)cc(C)c32)C1 [Example 17-180]
11 | 2 | 3 | 59 | < 0.001 | 0.004 |  |  |  |  |  | Cc1cc(C(=O)Nc2nc3cccc(Cl)c3n2[C@@H]2CCCCN(C(=O)/C=C/CNC(C)(C)C)C2)ccn1 [Example 17-191]
12 | 3740 | 4840 | > 10000 | 5.84 | 16.1 |  |  |  |  |  | Cc1cc(C(=O)Nc2nc3cccc(Cl)c3n2[C@@H]2CCCCN(C(=O)/C=C/CN(C)C(=O)OC(C)(C)C)C2)ccn1 [Example 17-184]
13 | 770 | 422 | > 10000 | 0.022 | 0.472 |  |  |  |  |  | Cc1cc(C(=O)Nc2nc3cccc(Cl)c3n2[C@@H]2CCCCN(C(=O)/C=C/CN(C)C)C2)cc(P(C)(C)=O)n1 [Example 17-182]
14 | 2 | 2 | 37 | < 0.001 | 0.003 |  |  |  |  |  | Cc1cc(C(=O)Nc2nc3cccc(Cl)c3n2[C@@H]2CCCCN(C(=O)/C=C/CNC3(C)CC3)C2)ccn1 [Example 17-192]
15 | 899 | 2530 | > 10000 | 0.36 | 0.352 |  |  |  |  |  | Cc1cc(C(=O)Nc2nc3cccc(Cl)c3n2[C@@H]2CCCCN(C(=O)C3=CCCN(C)C3)C2)ccn1 [Example 3-16]
16 | 2 | 3 | 47 | < 0.001 | 0.003 |  |  |  |  |  | Cc1cc(C(=O)Nc2nc3cccc(Cl)c3n2[C@@H]2CCCCN(C(=O)/C=C/CNC3CC3)C2)ccn1 [Example 17-190]
17 | 935 | 2000 | > 10000 | 0.117 | 1.67 |  |  |  |  |  | Cc1cc(C(=O)Nc2nc3cccc(Cl)c3n2[C@H]2CCCCN(C(=O)/C=C/CN(C)C)C2)cc(C)n1 [Example 17-197]
18 | < 1 | 2 | 67 | < 0.001 | 0.002 |  | 82 |  |  |  | C=CC(=O)N1CCCC[C@@H](n2c(NC(=O)c3cc(C)nc(C)c3)nc3cc(CN4CC[C@H](F)C4)cc(C)c32)C1 [Example 17-158]
19 | 93 | 202 | > 10000 | 0.01 | 0.21 |  | > 10000 |  |  |  | C/C=C/C(=O)N1CCCC[C@@H](n2c(NC(=O)c3cc(C)nc(C)c3)nc3cc(CN4CC[C@H](OC)C4)ccc32)C1 [Example 17-174]
20 | < 1 | 2 | 84 | < 0.001 | 0.002 |  | 70 |  |  |  | C=CC(=O)N1CCCC[C@@H](n2c(NC(=O)c3cc(C)nc(C)c3)nc3cc(CN4CC[C@@H](F)C4)cc(C)c32)C1 [Example 17-159]
21 | 10 | 147 |  | 0.003 | 0.064 | 30 | > 10000 | 0.008 | 4.4 | 0.052 | C=CC(=O)N1CCCC[C@@H](n2c(NC(=O)c3cccc(C(F)(F)F)c3)nc3cccc(C(F)(F)F)c32)C1 [Example 17-12]
22 | 2 | 4 | 522 | < 0.001 | 0.004 |  | 289 |  |  |  | C=CC(=O)N1CCCC[C@@H](n2c(NC(=O)c3cc(C)nc(C)c3)nc3cc(CN4CC[C@H](OC)C4)ccc32)C1 [Example 17-175]
23 | 25 | 22 |  | < 0.001 | 0.01 | 18 | 1250 | 0.032 | 0.114 | 0.018 | Cc1cc(C(=O)Nc2nc3cccc(Cl)c3n2[C@@H]2CCCCN(C(=O)/C=C/CN3CC[C@@H](O)C3)C2)ccn1 [Example 3-6]
